Measurements published in ChEMBL document CHEMBL4359874, “Synthesis of novel tellurides bearing benzensulfonamide moiety as carbonic anhydrase inhibitors with antitumor activity” (Eur J Med Chem, 2019).
Calls of active or inactive are those of the source. No cut-off for these calls is given here.

Experiments:
Carbonic anhydrase 9 = Carbonic anhydrase 9 (Homo sapiens, UniProt Q16790); test: Inhibition of recombinant human carbonic anhydrase 9 preincubated for 15 mins by phenol red dye based stopped flow CO2 hydration assay
MDA-MB-231 [1] = test: Cytotoxicity against human MDA-MB-231 cells assessed as reduction in cell viability at 30 uM after 48 hrs under hypoxia condition by MTT assay relative to control; type: functional
MDA-MB-231 [2] = test: Cytotoxicity against human MDA-MB-231 cells assessed as reduction in cell viability at 3 to 10 uM after 48 hrs under normoxia condition by MTT assay; type: functional, cell-based
MDA-MB-231 [3] = test: Cytotoxicity against human MDA-MB-231 cells assessed as reduction in cell viability at 3 uM after 48 hrs under hypoxia condition by MTT assay relative to control; type: functional
MDA-MB-231 [4] = test: Cytotoxicity against human MDA-MB-231 cells assessed as reduction in cell viability at 10 uM after 48 hrs under normoxia condition by MTT assay; type: functional, cell-based
MDA-MB-231 [5] = test: Cytotoxicity against human MDA-MB-231 cells assessed as reduction in cell viability at 3 uM after 48 hrs under normoxia condition by MTT assay relative to control; type: functional

Row | SMILES | Ki (Carbonic anhydrase 9) [nM] | also measured
1 | CC[Te]CC(O)COc1ccc(S(N)(=O)=O)cc1 (centres undefined) | 40.7 | –
2 | NS(=O)(=O)c1ccc(OCC(O)C[Te]CC(O)COc2ccc(S(N)(=O)=O)cc2)cc1 (centres undefined) | 809 | –
3 | COc1ccc([Te]CC(O)COc2ccc(S(N)(=O)=O)cc2)cc1 (centres undefined) | 7.8 | –
4 | CCCC[Te]CC(O)COc1ccc(S(N)(=O)=O)cc1 (centres undefined) | 333 | –
5 | NS(=O)(=O)c1ccc(OCC(O)C[Te]c2ccc3ccccc3c2)cc1 (centres undefined) | 6.4 | Activity (MDA-MB-231 [1]): 90%; Activity (MDA-MB-231 [2]): Active
6 | Cc1ccccc1[Te]CC(O)COc1ccc(S(N)(=O)=O)cc1 (centres undefined) | 9.5 | Activity (MDA-MB-231 [3]): 32%; Activity (MDA-MB-231 [1]): >50%; Activity (MDA-MB-231 [4]): Active; Activity (MDA-MB-231 [5]): >50%
7 | NS(=O)(=O)c1ccc(OCC(O)C[Te]c2ccccc2)cc1 (centres undefined) | 14.8 | –
8 | Cc1ccc([Te]CC(O)COc2ccc(S(N)(=O)=O)cc2)cc1 (centres undefined) | 118 | –
